# Data published in patent publication US8552161B2, “Saponin compounds, methods of preparation thereof, use thereof and pharmaceutical compositions” (Uniwersytet W Bialymstoku, priority 2009, dated 2013).
# Columns and labels:
# [1] = system: T-lymphoblastic leukemia cell line CEM; assay: Calcein AM cytotoxicity assay, CEM; format: cell-based; settings: Calcein AM assay, 72 h; means ± SD, three independent experiments in triplicate
# Experimental: (§1) Stock solutions (10 mmol/l) of the tested compounds were prepared by dissolving relevant quantity of the substance in DMSO. […] Calcein AM was obtained from Molecular Probes (Invitrogen Corporation, CA, USA).
# (§2) All cell lines were cultured in DMEM medium (Sigma, Mo., USA). Medium was supplemented with 10% heat-inactivated fetal bovine serum, 2 mmol/l L-glutamine and 1% penicillin-streptomycin. The cell lines were maintained under standard cell culture conditions at 37° C. and 5% CO2 in a humid environment. Cells were subcultured twice or three times a week using the standard trypsinization procedure.
# (§3) All cell lines were cultured in DMEM medium (Sigma, Mo., USA) supplemented with 10% fetal calf serum, 2 mM glutamine, 100 U/ml penicillin and 100 μg/ml streptomycin, at 37° C. in a fully humidified atmosphere containing 5% CO2. Suspensions of these lines (ca. 1.0×10^5 cells/ml) were placed in 96-well microtitre plates and after 3 h of stabilization the tested compounds were added in serially diluted concentrations. Saponins were dissolved in dimethylsulfoxide (DMSO) before addition to cultures. Control cultures were treated with DMSO alone. The final concentration of DMSO in the reaction mixtures never exceeded 0.6%. Four-fold dilutions of the intended test concentration were added at time zero in 20 μl aliquots to the microtitre plate wells. Usually, each test compound was evaluated at six 4-fold dilutions and in routine testing; the highest well concentration was 50 μM, although this varied in a few cases, depending on the test compound. After 72 h of culture, the cells were incubated with Calcein AM solution (Molecular Probes) for 1 h. The fluorescence of viable cells was quantified using a Fluoroscan Ascent instrument (Microsystems).
# [2] = system: breast carcinoma cell line MCF7; assay: Calcein AM cytotoxicity assay, MCF7; format: cell-based, human; settings: Calcein AM assay, 72 h; means ± SD, three independent experiments in triplicate
# Experimental: as §1, §2, §3
# [3] = system: malignant melanoma cell line G-361; assay: Calcein AM cytotoxicity assay, G-361; format: cell-based, human; settings: 72 h, means ± SD, three independent experiments in triplicate
# Experimental: as §1, §2, §3
# [4] = system: cervical carcinoma cell line HeLa; assay: Calcein AM cytotoxicity assay, HeLa; format: cell-based; settings: 72 h, means ± SD, three independent experiments in triplicate
# Experimental: as §1, §2, §3
# [5] = system: lung carcinoma cell line A549; assay: Calcein AM cytotoxicity assay, A549; format: cell-based, human; settings: 72 h, means ± SD, three independent experiments in triplicate, read-out: IC50, A 549
# Experimental: as §1, §2, §3
# [6] = system: normal human fibroblasts BJ; assay: Calcein AM cytotoxicity assay, normal fibroblasts BJ; format: cell-based; settings: 72 h, means ± SD, three independent experiments in triplicate
# Experimental: as §1, §2, §3
# [7] = system: caspase-3/7 in CEM cells; assay: Activity of caspases-3/7 in treated CEM cells (Ac-DEVD-AMC substrate); format: cell-based; settings: for activity of caspases-3/7 compared with untreated control: 24 h, 3 (1; 2.5; 5 μM), 6 (0.1; 0.25; 0.5 μM)
# Experimental: The CEM cells treated with the novel compounds were harvested by centrifugations and homogenized in an extraction buffer (10 mM KCl, 5 mM HEPES, 1 mM EDTA, 1 mM EGTA, 0.2% CHAPS, inhibitors of proteases, pH 7.4) on ice for 20 min. The homogenates were clarified by centrifugation at 10,000 g for […] at 4° C., the proteins were quantified by the Bradford method and diluted to the same concentration. Lysates were then incubated for 1 h with […] Ac-DEVD-AMC as a substrate (Sigma-Aldrich) in an assay buffer (25 mM PIPES, 2 mM EGTA, 2 mM MgCl2, 5 mM DTT, pH 7.3). For negative controls, the lysates were supplemented with […] Ac-DEVD-CHO as a caspase-3/7 inhibitor (Sigma-Aldrich). The fluorescence of the product was measured using a Fluoroskan Ascent microplate reader (Labsystems) at 346/442 nm (ex/em). Here, we determined the activity of caspase-3/7 in CEM cells exposed to 3, 6 or 7 using a fluorogenic substrate Ac-DEVD-AMC and/or caspase 3/7 inhibitor […]. Cells were treated in a dose-dependent manner with compounds 3 (1; 2.5; 5 μM), 6 (0.1; 0.25; 0.5 μM) and 7 (5; 7.5; 10 μM).
# [8] = system: CEM cells; assay: Flow cytometry cell cycle and apoptosis (subG1) analysis; format: cell-based; settings: for distribution of CEM cells in cell cycle phases (FIG. 2): increasing concentrations
# Experimental: The leukemia cancer CEM cells were trypsinized, seeded in 6 well plates, and immediately incubated with the respective compounds. […] Triton X-100, and 50 μg/ml propidium iodide in PBS. DNA content was assessed with a flow cytometer (Cell Lab Quanta SC—MPL, Beckman Coulter, Calif., USA). In a histogram analysis, distribution of cells into the subG1 (“apoptotic cells”), the G0/G1, S and the G2/M peak was quantified using software MultiCycle AV (Phoenix Flow Systems, CA, USA).
# [9] = system: leukemia cells (CEM); assay: Western blot analysis of apoptosis related proteins; format: cell-based; settings: 24 h
# Experimental: The cells were seeded in a density 2.2×10^4 cells/cm^2 using culture medium in 100-mm culture dishes. Immediately the cells were treated by novel saponins: 3 (1; 2.5; 5 μM), 6 (0.1; 0.25; 0.5 μM) and 7 (5; 7.5; 10 μM). DMSO was used as a vehicle for controls. After 24 h treatment, the cells were washed three times with cold PBS (10 mM, pH 7.4) and lysed in ice-cold protein extract RIPA buffer (20 mM Tris-HCl, pH 7.4, 5 mM EDTA, 2 mM EGTA, 100 mM NaCl, 2 mM NaF, 0.2% Nonidet P-40, 30 mM PMSF, 1 mM DTT, […] of aprotinin and leupeptin). The lysate was collected into microfuge tube and incubated on ice for 1 h. It was then cleared by centrifugation at 10,000×g for […] at 4° C., and supernatant was collected, aliquoted, and stored at −80° C. Proteins in lysates were quantified by the Bradford method and then diluted with Laemmli electrophoresis buffer. Proteins were then separated on 10% or 12% SDS-polyacrylamide gels, transferred onto nitrocellulose membranes (Bio-Rad Laboratories, CA, USA) and stained with Ponceau S to check equal protein loading. The membranes were blocked with 5% (w/v) non-fat dry milk and 0.1% Tween-20 in PBS for 2 h and probed with the specific primary antibodies overnight. After washing in PBS and PBS with 0.1% Tween-20, the membranes were probed with horseradish peroxidase-conjugated secondary antibodies and visualized with chemiluminescent detection reagent West Pico Supersignal (Thermo Fisher Scientific, Rockford, USA). To confirm equal protein loading, immunodetection was performed with the anti-α-tubulin monoclonal antibody. The experiments were repeated three times. The protein expressions in treated cells were compared to untreated controls.
SMILES,IC50 [1],IC50 [2],IC50 [3],IC50 [4],IC50 [5],IC50 [6],activity of caspases-3/7 compared with untreated control [7],caspase-3/7 activity after treatment with higher concentrations [7],subG1 phase of the cell cycle (apoptotic cells) ([8]; CEM cell line after treatment),distribution of CEM cells in cell cycle phases (FIG. 2) [8],"Apoptosis subG1 ([8]; CEM, 24 h, 0.5 μM)","Cell cycle distribution G0/G1 ([8]; CEM, 24 h, 0.5 μM)","Cell cycle distribution G2/M ([8]; CEM, 24 h, 0.5 μM)","Cell cycle distribution S ([8]; CEM, 24 h, 0.5 μM)",PARP (Western blot) ([9]; dose-dependent (FIG. 5)),caspase-3 (Western blot) ([9]; dose-dependent (FIG. 5)),antiapoptotic Bcl-2 protein ([9]; dose-dependent (FIG. 5)),expression of tumour suppressor protein p53 ([9]; dose-dependent (FIG. 5)),phosphorylation of pRb S780 ([9]; same concentrations (FIG. 5))
"COc1ccc(C(=O)O[C@H]2[C@H](O[C@@H]3[C@@H](OC(C)=O)[C@H](O[C@H]4C[C@H]5[C@@H]6CC=C7C[C@@H](O)CC[C@]7(C)[C@H]6CC[C@]5(C)[C@@]4(O)[C@H](C)COCc4ccccc4)OC[C@@H]3O)OC[C@@H](O)[C@@H]2O)cc1 [Compound 1, (20R)-21-Benzyloxy-20-methylpregn-5-ene-3β,16β,17α-triol 16-O-{2-O-(4-methoxybenzoyl)-β-D-xylopyranosyl-(1→3)-2′-O-acetyl-α-L-arabinopyranoside}]",20 ± 1 nM,600 ± 100 nM,750 ± 80 nM,200 ± 10 nM,100 ± 50 nM,300 ± 40 nM,,,,,,,,,,,,,
"COc1ccc(C(=O)O[C@H]2[C@H](O[C@@H]3[C@@H](OC(C)=O)[C@H](O[C@H]4C[C@H]5[C@@H]6CC=C7C[C@@H](O)CC[C@]7(C)[C@H]6CC[C@]5(C)[C@@]4(O)[C@H](C)COC(=O)c4ccccc4)OC[C@@H]3O)OC[C@@H](O)[C@@H]2O)cc1 [Compound 2, (20R)-21-O-benzoyl-20-methylpregn-5-ene-3β,16β,17α,21-tetraol 16-O-{2-O-(4-methoxybenzoyl)-β-D-xylopyranosyl-(1→3)-2′-O-acetyl-α-L-arabinopyranoside}]",70 ± 10 nM,700 ± 100 nM,1660 ± 900 nM,240 ± 60 nM,170 ± 40 nM,100 ± 20 nM,,,,,,,,,,,,,
"COc1ccc(C(=O)OCC(C)C2(O)C(OC3OCC(O)C(OC4OCC(O)C(O)C4OC(=O)c4ccc(OC)cc4)C3OC(C)=O)CC3C4CC=C5CC(O)CCC5(C)C4CCC32C)cc1 [Compound 3, (20R)-21-O-(4-methoxybenzoyl)-20-methylopregn-5-ene-3β,16β,17α,21-tetraol 16-O-{2-O-(4-methoxybenzoyl)-β-D-xylopyranosyl-(1→3)-2′-O-acetyl-α-L-arabinopyranoside]",,,,,,,twofold enhancement,caspase-3/7 activity decreased,increase in subG1 phase,increased the number of S-phase and G2/M cells with concomitant decrease of G0/G1 cells in dose-dependent manner,11%,17%,26%,46%,cleavage of PARP,accumulation of caspase-3,,,
"CCCCC(=O)OC[C@@H](C)[C@@]1(O)[C@@H](O[C@@H]2OC[C@H](O)[C@H](O[C@@H]3OC[C@@H](O)[C@H](O)[C@H]3OC(=O)c3ccc(OC)cc3)[C@H]2OC(C)=O)C[C@H]2[C@@H]3CC=C4C[C@@H](O)CC[C@]4(C)[C@H]3CC[C@@]21C [Compound 4, (20R)-21-O-pentanoyl-20-methylpregn-5-ene-3β,16β,17α,21-tetraol 16-O-{2-O-(4-methoxybenzoyl)-β-D-xylopyranosyl-(1→3)-2′-O-acetyl-α-L-arabinopyranoside}]",60 ± 10 nM,500 ± 70 nM,390 ± 60 nM,170 ± 10 nM,160 ± 40 nM,500 ± 60 nM,,,,,,,,,,,,,
"CCCCCCC(=O)OC[C@@H](C)[C@@]1(O)[C@@H](O[C@@H]2OC[C@H](O)[C@H](O[C@@H]3OC[C@@H](O)[C@H](O)[C@H]3OC(=O)c3ccc(OC)cc3)[C@H]2OC(C)=O)C[C@H]2[C@@H]3CC=C4C[C@@H](O)CC[C@]4(C)[C@H]3CC[C@@]21C [Compound 5, (20R)-21-O-Heptanoyl-20-methylpregn-5-ene-3β,16β,17α,21-tetraol 16-O-{2-O-(4-methoxybenzoyl)-β-D-xylopyranosyl-(1-3)-2′-O-acetyl-α-L-arabinopyranoside}]",10 ± 2 nM,400 ± 40 nM,1280 ± 200 nM,30 ± 2 nM,20 ± 5 nM,600 ± 70 nM,,,,,,,,,,,,,
"C=CCCCCCCCCC(=O)OC[C@@H](C)[C@@]1(O)[C@@H](O[C@@H]2OC[C@H](O)[C@H](O[C@@H]3OC[C@@H](O)[C@H](O)[C@H]3OC(=O)c3ccc(OC)cc3)[C@H]2OC(C)=O)C[C@H]2[C@@H]3CC=C4C[C@@H](O)CC[C@]4(C)[C@H]3CC[C@@]21C [Compound 6, (20R)-21-O-(Undec-10-enoyl)-20-methylpregn-5-ene-3β,16β,17α,21-tetraol 16-O-{2-O-(4-methoxybenzoyl)-β-D-xylopyranosyl-(1→3)-O-acetyl-α-L-arabinopyranoside}]",,,,,,,twofold enhancement,caspase-3/7 activity decreased,,increased the number of S-phase and G2/M cells with concomitant decrease of G0/G1 cells in dose-dependent manner,,,,,cleavage of PARP,accumulation of caspase-3,increased,enhanced expression,increase of phosphorylation of pRb S780
